From patent US6992079B2, “Substituted 11-phenyl-dibenzazepine compounds useful for the treatment or prevention of diseases characterized by abnormal cell proliferation” (President Fellows of Harvard College, priority 1997, dated 2006)
Like-named read-outs stand apart in the source and are kept apart here.

Assays:
[1] = system: H209 small lung cell carcinoma; assay: Mouse xenograft tumor growth; format: in vivo, SCID mice
[2] = system: squamous cell carcinoma (KLN-205) cells; assay: Tumor growth in murine squamous cell carcinoma model; format: in vivo, mouse
[3] = system: NIH 3T3 mouse fibroblast cells; assay: Mitogenic assay (mitogen-induced cell proliferation); format: cell-based
HCT-15 = assay: In-Vitro Testing SRB panel: Colon Cancer; format: cell-based; conditions: HCT-15, 48 h
RL-60 (TS) = assay: In-Vitro Testing SRB panel: Leukemia; format: cell-based; conditions: 48 h
BT-549 = assay: In-Vitro Testing SRB panel: Breast Cancer; format: cell-based; conditions: BT-549, 48 h
CARI-1 = assay: In-Vitro Testing SRB panel: Renal Cancer; format: cell-based; conditions: 48 h
NCI-H460 = format: cell-based; conditions: NCI-H460, 48 h
OVCAR-4 = assay: In-Vitro Testing SRB panel: Ovarian Cancer; format: cell-based; conditions: OVCAR-4, 48 h
A549/ATCC = format: cell-based
PC-3 = assay: In-Vitro Testing SRB panel: Prostate Cancer; format: cell-based; conditions: PC-3, 48 h
ERVX = conditions: 48 h
[4] = system: panel of human cancer cells; assay: In vitro screening, SRB, panel of 60 human cancer cell lines; format: cell-based
[5] = In-Vitro Testing SRB panel: Renal Cancer; format: cell-based; conditions: 48 h
ROP-62 = format: cell-based; conditions: 48 h
MC-F7 = assay: In-Vitro Testing SRB panel: Breast Cancer; format: cell-based
SK-OV-3 = assay: In-Vitro Testing SRB panel: Ovarian Cancer; format: cell-based; conditions: SK-OV-3, 48 h
MDA-MB-231/ATCC = assay: In-Vitro Testing SRB panel: Breast Cancer; format: cell-based
[6] = system: SU.86.86 pancreatic adenocarcinoma; assay: Mouse xenograft tumor growth; format: in vivo, nude mice; conditions: SU.86.86 pancreatic adenocarcinoma mouse xenograft
SR = assay: In-Vitro Testing SRB panel: Leukemia; format: cell-based; conditions: 48 h
[7] = Homo sapiens, read-out: LC50 (the source's name)

Compound: O=C(c1ccc([N+](=O)[O-])cc1)N1Cc2ccccc2C(c2ccccc2Cl)c2ccccc21 (stereo not shown) [Compound 28, N-(4′-Nitrobenzoyl)-11-(2′-chlorophenyl)-5,6-dihydro-11H-dibenz[b,e]azepine]
- tumor growth [1]: significantly inhibited tumor growth
- cyclin D1 and PCNA expression in vivo ([2]; KLN induced tumors): abrogated cyclin D1 and PCNA expression
- tumor growth ([2]; KLN-205, subcutaneous injection or oral administration of 80 mg/kg/day for 30 days): significantly inhibited tumor growth
- IC50 ([3]; NIH3T3): 0.04 to 0.5 µM
- inhibition at 10 µM ([3]; NIH3T3, 10 μM compound): 99%
- TGI (HCT-15): >1.00E−04 Molar
- Percent Growth (HCT-15; log10 conc −4.0 Molar): 29%
- Percent Growth (HCT-15; log10 conc −5.0 Molar): 28%
- Percent Growth (HCT-15; log10 conc −6.0 Molar): 40%
- Percent Growth (HCT-15; log10 conc −7.0 Molar): 86%
- Percent Growth (HCT-15; log10 conc −8.0 Molar): 99%
- GI50 (HCT-15; Homo sapiens): 0.608 µM
- CC50 (HCT-15; [7]): > 100 µM
- GI50 (RL-60 (TS); Homo sapiens): 0.489 µM
- CC50 (RL-60 (TS); Homo sapiens, RL-60 (TS), read-out: LC50 (the source's name)): > 100 µM
- TGI (RL-60 (TS); RL-60 (TS)): 7.71E−05 Molar
- Percent Growth (RL-60 (TS); RL-60 (TS), log10 conc −4.0 Molar): 1%
- Percent Growth (RL-60 (TS); RL-60 (TS), log10 conc −5.0 Molar): 5%
- Percent Growth (RL-60 (TS); RL-60 (TS), log10 conc −6.0 Molar): 41%
- Percent Growth (RL-60 (TS); RL-60 (TS), log10 conc −7.0 Molar): 71%
- Percent Growth (RL-60 (TS); RL-60 (TS), log10 conc −8.0 Molar): 76%
- TGI (BT-549): >1.00E−04 Molar
- Percent Growth (BT-549; log10 conc −4.0 Molar): 34%
- Percent Growth (BT-549; log10 conc −5.0 Molar): 46%
- Percent Growth (BT-549; log10 conc −6.0 Molar): 70%
- Percent Growth (BT-549; log10 conc −7.0 Molar): 87%
- Percent Growth (BT-549; log10 conc −8.0 Molar): 98%
- GI50 (BT-549; Homo sapiens): 6.7 µM
- CC50 (BT-549; [7]): > 100 µM
- TGI (CARI-1; CARI-1): >1.00E−04 Molar
- Percent Growth (CARI-1; CARI-1, log10 conc −4.0 Molar): 22%
- Percent Growth (CARI-1; CARI-1, log10 conc −5.0 Molar): 40%
- Percent Growth (CARI-1; CARI-1, log10 conc −6.0 Molar): 61%
- Percent Growth (CARI-1; CARI-1, log10 conc −7.0 Molar): 91%
- Percent Growth (CARI-1; CARI-1, log10 conc −8.0 Molar): 94%
- GI50 (CARI-1; Homo sapiens): 3.26 µM
- CC50 (CARI-1; Homo sapiens, CARI-1, read-out: LC50 (the source's name)): > 100 µM
- GI50 (NCI-H460; Homo sapiens): 3.65 µM
- CC50 (NCI-H460; [7]): > 100 µM
- TGI (NCI-H460): >1.00E−04 Molar
- Percent Growth (NCI-H460; log10 conc −4.0 Molar): 15%
- Percent Growth (NCI-H460; log10 conc −5.0 Molar): 12%
- Percent Growth (NCI-H460; log10 conc −6.0 Molar): 18%
- Percent Growth (NCI-H460; log10 conc −7.0 Molar): 92%
- Percent Growth (NCI-H460; log10 conc −8.0 Molar): 97%
- GI50 (OVCAR-4; Homo sapiens): 0.974 µM
- CC50 (OVCAR-4; [7]): > 100 µM
- TGI (OVCAR-4): >1.00E−04 Molar
- Percent Growth (OVCAR-4; log10 conc −4.0 Molar): 10%
- Percent Growth (OVCAR-4; log10 conc −5.0 Molar): 16%
- Percent Growth (OVCAR-4; log10 conc −6.0 Molar): 50%
- Percent Growth (OVCAR-4; log10 conc −7.0 Molar): 80%
- Percent Growth (OVCAR-4; log10 conc −8.0 Molar): 98%
- TGI (A549/ATCC; A549/ATCC, 48 h): >1.00E−04 Molar
- Percent Growth (A549/ATCC; A549/ATCC, log10 conc −4.0 Molar, 48 h): 14%
- Percent Growth (A549/ATCC; A549/ATCC, log10 conc −5.0 Molar, 48 h): 20%
- Percent Growth (A549/ATCC; A549/ATCC, log10 conc −6.0 Molar, 48 h): 49%
- Percent Growth (A549/ATCC; A549/ATCC, log10 conc −7.0 Molar, 48 h): 92%
- Percent Growth (A549/ATCC; A549/ATCC, log10 conc −8.0 Molar, 48 h): 97%
- GI50 (A549/ATCC; Homo sapiens, A549, 48 h): 0.937 µM
- CC50 (A549/ATCC; Homo sapiens, A549/ATCC, 48 h, read-out: LC50 (the source's name)): > 100 µM
- GI50 (PC-3; Homo sapiens): 0.501 µM
- CC50 (PC-3; [7]): > 100 µM
- TGI (PC-3): 9.10E−06 Molar
- Percent Growth (PC-3; log10 conc −4.0 Molar): −9%
- Percent Growth (PC-3; log10 conc −5.0 Molar): −2%
- Percent Growth (PC-3; log10 conc −6.0 Molar): 40%
- Percent Growth (PC-3; log10 conc −7.0 Molar): 74%
- Percent Growth (PC-3; log10 conc −8.0 Molar): 109%
- TGI (ERVX; ERVX): >1.00E−04 Molar
- Percent Growth (ERVX; ERVX, log10 conc −4.0 Molar): 23%
- Percent Growth (ERVX; ERVX, log10 conc −5.0 Molar): 24%
- Percent Growth (ERVX; ERVX, log10 conc −6.0 Molar): 51%
- Percent Growth (ERVX; ERVX, log10 conc −7.0 Molar): 93%
- Percent Growth (ERVX; ERVX, log10 conc −8.0 Molar): 85%
- GI50 (ERVX; Homo sapiens): 1.13 µM
- CC50 (ERVX; Homo sapiens, read-out: LC50): > 100 µM
- activity against the human cell panel [4]: exhibited activity against the human cell panel
- TGI ([5]; DO-31): >1.00E−04 Molar
- Percent Growth ([5]; DO-31, log10 conc −4.0 Molar): 14%
- Percent Growth ([5]; DO-31, log10 conc −5.0 Molar): 28%
- Percent Growth ([5]; DO-31, log10 conc −6.0 Molar): 56%
- Percent Growth ([5]; DO-31, log10 conc −7.0 Molar): 111%
- Percent Growth ([5]; DO-31, log10 conc −8.0 Molar): 105%
- GI50 ([5]; Homo sapiens): 1.69 µM
- CC50 ([5]; Homo sapiens, DO-31, read-out: LC50 (the source's name)): > 100 µM
- GI50 (ROP-62; Homo sapiens): 13.1 µM
- CC50 (ROP-62; Homo sapiens, ROP-62, read-out: LC50 (the source's name)): > 100 µM
- TGI (ROP-62; ROP-62): >1.00E−04 Molar
- Percent Growth (ROP-62; ROP-62, log10 conc −4.0 Molar): 38%
- Percent Growth (ROP-62; ROP-62, log10 conc −5.0 Molar): 52%
- Percent Growth (ROP-62; ROP-62, log10 conc −6.0 Molar): 60%
- Percent Growth (ROP-62; ROP-62, log10 conc −7.0 Molar): 89%
- Percent Growth (ROP-62; ROP-62, log10 conc −8.0 Molar): 91%
- GI50 (MC-F7; Homo sapiens, MCF7, 48 h): 0.872 µM
- CC50 (MC-F7; Homo sapiens, MCF7, MC-F7, 48 h, read-out: LC50 (the source's name)): > 100 µM
- TGI (MC-F7; MC-F7, 48 h): >1.00E−04 Molar
- Percent Growth (MC-F7; MC-F7, log10 conc −4.0 Molar, 48 h): 8%
- Percent Growth (MC-F7; MC-F7, log10 conc −5.0 Molar, 48 h): 21%
- Percent Growth (MC-F7; MC-F7, log10 conc −6.0 Molar, 48 h): 48%
- Percent Growth (MC-F7; MC-F7, log10 conc −7.0 Molar, 48 h): 88%
- Percent Growth (MC-F7; MC-F7, log10 conc −8.0 Molar, 48 h): 97%
- GI50 (SK-OV-3; Homo sapiens): 8.31 µM
- CC50 (SK-OV-3; [7]): > 100 µM
- TGI (SK-OV-3): >1.00E−04 Molar
- Percent Growth (SK-OV-3; log10 conc −4.0 Molar): 36%
- Percent Growth (SK-OV-3; log10 conc −5.0 Molar): 47%
- Percent Growth (SK-OV-3; log10 conc −6.0 Molar): 79%
- Percent Growth (SK-OV-3; log10 conc −7.0 Molar): 97%
- Percent Growth (SK-OV-3; log10 conc −8.0 Molar): 97%
- GI50 (MDA-MB-231/ATCC; Homo sapiens, MDA-MB-231, 48 h): 4.94 µM
- CC50 (MDA-MB-231/ATCC; Homo sapiens, MDA-MB-231/ATCC, 48 h, read-out: LC50 (the source's name)): > 100 µM
- TGI (MDA-MB-231/ATCC; MDA-MB-231/ATCC, 48 h): >1.00E−04 Molar
- Percent Growth (MDA-MB-231/ATCC; MDA-MB-231/ATCC, log10 conc −4.0 Molar, 48 h): 22%
- Percent Growth (MDA-MB-231/ATCC; MDA-MB-231/ATCC, log10 conc −5.0 Molar, 48 h): 36%
- Percent Growth (MDA-MB-231/ATCC; MDA-MB-231/ATCC, log10 conc −6.0 Molar, 48 h): 72%
- Percent Growth (MDA-MB-231/ATCC; MDA-MB-231/ATCC, log10 conc −7.0 Molar, 48 h): 96%
- Percent Growth (MDA-MB-231/ATCC; MDA-MB-231/ATCC, log10 conc −8.0 Molar, 48 h): 103%
- tumor growth [6]: significantly inhibited tumor growth
- TGI (SR): >1.00E−04 Molar
- GI50 (SR; Homo sapiens): 0.643 µM
- CC50 (SR; [7]): > 100 µM
- Percent Growth (SR; log10 conc −4.0 Molar): 21%
- Percent Growth (SR; log10 conc −5.0 Molar): 30%
- Percent Growth (SR; log10 conc −6.0 Molar): 42%
- Percent Growth (SR; log10 conc −7.0 Molar): 85%
- Percent Growth (SR; log10 conc −8.0 Molar): 76%
